Experimental data: PMC6576746, “Rational discovery of dual-indication multi-target PDE/Kinase inhibitor for precision anti-cancer therapy using structural systems pharmacology” (PLoS Computational Biology, 2019)

What was measured:
Assay in all cases: cells
Design in all cases: species or system panel of human cancer cell lines; Eurofins OncoPanel proliferation; nuclei count by high-content fluorescence imaging, 10-point dose response
VA-ES-BJ = conditions: 72 h, cell count, 3 days
Procedure, shortened: (§1)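 Cells in RPMI 1640/10% FBS or special medium received compound the day after seeding, with a time-zero plate; 3-day incubation at 37°C, 5% CO2. Nuclei imaged by fluorescence microscopy; 10 half-log doses from 100 μM, 0.1% DMSO. EC50, IC50, GI50 and activity area (0–10) from curve fits.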

KHOS-240S = conditions: KHOS-240S, 72 h, cell count, 3 days
Procedure, shortened: as §1

Hs 688(A).T = conditions: 72 h, cell count, 3 days
Procedure, shortened: as §1

SU-DHL-4 = conditions: Homo sapiens, SU-DHL-4, 72 h, cell count, 3 days
Procedure, shortened: as §1

DoTc2 4510 = conditions: Homo sapiens, DoTc2-4510, 72 h, cell count, 3 days
Procedure, shortened: as §1

CaOV3 = conditions: Homo sapiens, Caov-3, 72 h, cell count, 3 days
Procedure, shortened: as §1

LS411N = conditions: Homo sapiens, LS-411N, 72 h, cell count, 3 days
Procedure, shortened: as §1

RPMI 6666 = conditions: Homo sapiens, RPMI-6666, 72 h, cell count, 3 days
Procedure, shortened: as §1

BFTC-905 = conditions: Homo sapiens, BFTC-905, 72 h, cell count, 3 days
Procedure, shortened: as §1

DBTRG-05MG = conditions: Homo sapiens, DBTRG-05MG, 72 h, cell count, 3 days
Procedure, shortened: as §1

U266B1 = conditions: 72 h, cell count, 3 days
Procedure, shortened: as §1

G-402 = conditions: Homo sapiens, G-402, 72 h, cell count, 3 days
Procedure, shortened: as §1

NAMALWA = conditions: 72 h, cell count, 3 days
Procedure, shortened: as §1

REC-1 = conditions: Homo sapiens, Rec1, 72 h, cell count, 3 days
Procedure, shortened: as §1

[1] = 50% of maximum possible response

Question: For `C[C@@H]1CC(=O)NN=C1c1ccc(NN=C(C#N)C#N)cc1` [levosimendan], which IC50 (VA-ES-BJ; [1]) is on record?
Answer: 51.7 µM

Question: What about the GI50 (VA-ES-BJ; corrected for time zero) of the same molecule?
Answer: 42.4 µM

Question: What about the EC50 (VA-ES-BJ; curve inflection point) of the same molecule?
Answer: 51.7 µM

Question: And the IC50 (KHOS-240S; [1])?
Answer: 16.9 µM

Question: And the GI50 (KHOS-240S; corrected for time zero)?
Answer: 13.5 µM

Question: And the EC50 (KHOS-240S; curve inflection point)?
Answer: 16.9 µM

Question: And the IC50 (Hs 688(A).T; [1])?
Answer: > 100 µM

Question: And the GI50 (Hs 688(A).T; corrected for time zero)?
Answer: 10.5 µM

Question: What about the EC50 (Hs 688(A).T; curve inflection point) of the same molecule?
Answer: 16 µM

Question: What about the IC50 (SU-DHL-4; [1]) of the same molecule?
Answer: 4.77 µM

Question: And the GI50 (SU-DHL-4; corrected for time zero)?
Answer: 3.31 µM

Question: And the EC50 (SU-DHL-4; curve inflection point)?
Answer: 0.944 µM

Question: What about the IC50 (DoTc2 4510; [1]) of the same molecule?
Answer: 14.6 µM

Question: And the GI50 (DoTc2 4510; corrected for time zero)?
Answer: 11.4 µM

Question: And the EC50 (DoTc2 4510; curve inflection point)?
Answer: 10.8 µM

Question: And the IC50 (CaOV3; [1])?
Answer: 37.4 µM

Question: What about the GI50 (CaOV3; corrected for time zero) of the same molecule?
Answer: 21.4 µM

Question: And the EC50 (CaOV3; curve inflection point)?
Answer: 37.4 µM

Question: And the IC50 (LS411N; [1])?
Answer: > 100 µM

Question: What about the GI50 (LS411N; corrected for time zero) of the same molecule?
Answer: > 100 µM

Question: And the EC50 (LS411N; curve inflection point)?
Answer: > 100 µM

Question: What about the IC50 (RPMI 6666; [1]) of the same molecule?
Answer: 17.2 µM

Question: And the GI50 (RPMI 6666; corrected for time zero)?
Answer: 11 µM

Question: What about the EC50 (RPMI 6666; curve inflection point) of the same molecule?
Answer: 17.2 µM

Question: And the IC50 (BFTC-905; [1])?
Answer: 13.4 µM

Question: And the GI50 (BFTC-905; corrected for time zero)?
Answer: 12.4 µM

Question: And the EC50 (BFTC-905; curve inflection point)?
Answer: 13.4 µM

Question: And the IC50 (DBTRG-05MG; [1])?
Answer: 75.6 µM

Question: What about the GI50 (DBTRG-05MG; corrected for time zero) of the same molecule?
Answer: 41.4 µM

Question: What about the EC50 (DBTRG-05MG; curve inflection point) of the same molecule?
Answer: 75.6 µM

Question: What about the IC50 (U266B1; [1]) of the same molecule?
Answer: 95.7 µM

Question: And the GI50 (U266B1; corrected for time zero)?
Answer: 46.2 µM

Question: What about the EC50 (U266B1; curve inflection point) of the same molecule?
Answer: 95.7 µM

Question: What about the IC50 (G-402; [1]) of the same molecule?
Answer: 10.1 µM

Question: What about the GI50 (G-402; corrected for time zero) of the same molecule?
Answer: 4.83 µM

Question: And the EC50 (G-402; curve inflection point)?
Answer: 6.76 µM

Question: What about the IC50 (NAMALWA; [1]) of the same molecule?
Answer: 12.5 µM

Question: And the GI50 (NAMALWA; corrected for time zero)?
Answer: 11.3 µM

Question: And the EC50 (NAMALWA; curve inflection point)?
Answer: 12.5 µM

Question: What about the IC50 (REC-1; [1]) of the same molecule?
Answer: 25.2 µM

Question: What about the GI50 (REC-1; corrected for time zero) of the same molecule?
Answer: 9.04 µM

Question: What about the EC50 (REC-1; curve inflection point) of the same molecule?
Answer: 25.2 µM
